# Measured values: patent US20050209193A1, “Method for enhanced photodynamic therapy” (priority 2003, published 2005)
# Key:
# [1] = system: skin of patients (keratoses, sun damage, rosacea, melasma, wrinkles); experiment: Treatment of patients with PDT/IPL/RF after ALA application; type: in vivo, human
# Procedure: Four patients were treated with a combination of PDT, IPL, and RF. ALA was applied to the patients at time 0.
# Patient 1 received one PDT/RF/IPL peel treatment at full energy (26 J) 4 hours after application of ALA.
# Patients 2, 3, and 4 received four sessions of PDT/RF/IPL photofacial treatments at full energy (26 J) 1 hour after application of ALA.
# [2] = system: skin of the subject; experiment: Determination of effective treatment time for PDT/IPL/RF rejuvenation therapy after ALA application; type: in vivo, human
# Source text: ALA, was applied to the skin of the subject. The light used for PDT was IPL comprising a variety of wavelengths, with an intensity of 26 J. PDT/IPL/RF was applied at various time points following ALA application. […] The increase in efficacy leveled off at hours 5 and 6.
# A 4-hour treatment with ALA was required for significant efficacy of PDT/IPL/RF. A time course of this length may be accompanied by increases in erythema and other side effects. In order to minimize side effects, it was determined that a 1-hour treatment was preferred. The 1-hour treatment requires repeated administrations for maximum efficacy, but prevents skin breakdown. With its potential for increased side effects, the 4-hour treatment should be reserved for severe premalignant cases only.
# [3] = Patient 1, one PDT/RF/IPL peel treatment at 26 J, 4 hours after ALA
structure (smiles),measurement,setting,value
"NCC(=O)CCC(=O)O [ALA, 5-aminolevulinic acid]",effect on lentigines,"[1]; 4-hour treatment, Patient 1",selective destruction of lentigines
same,effect on atypia and keratoses,[1]; [3],significant darkening and slough of atypia and keratoses
same,effect on wrinkles,[1]; [3],diminution of wrinkles
same,skin rejuvenation,[1]; [3],generalized skin rejuvenation
same,"effect on sun damage, rosacea, and melasma","[1]; Patients 2, 3 and 4, four sessions PDT/RF/IPL photofacial at 26 J, 1 hour after ALA","decrease in sun damage, rosacea, and melasma"
same,efficacy of PDT/IPL/RF versus standard IPL/RF alone,"[2]; PDT/IPL/RF applied 15 minutes after ALA application, IPL 26 J, human test subject",no more efficacious than standard IPL/RF alone
same,efficacy of PDT/IPL/RF over RF alone,"[2]; PDT/IPL/RF applied 30 minutes after ALA application, IPL 26 J",minimal increase in efficacy
same,efficacy of PDT/IPL/RF over RF alone,"[2]; PDT/IPL/RF applied 45 minutes after ALA application, IPL 26 J",minimal increase in efficacy
same,efficacy of PDT/IPL/RF,"[2]; PDT/IPL/RF applied 1 hour after ALA application, IPL 26 J",noticeable increase in efficacy
same,efficacy of PDT/IPL/RF,"[2]; PDT/IPL/RF applied 2 hours after ALA application, IPL 26 J",noticeable increase in efficacy
same,efficacy of PDT/IPL/RF,"[2]; PDT/IPL/RF applied 4 hours after ALA application, IPL 26 J",largest increase of any point in time
same,efficacy of PDT/IPL/RF,"[2]; PDT/IPL/RF applied 5 hours after ALA application, IPL 26 J",leveled off
same,efficacy of PDT/IPL/RF,"[2]; PDT/IPL/RF applied 6 hours after ALA application, IPL 26 J",leveled off
same,ALA treatment time required for significant efficacy of PDT/IPL/RF,[2]; human test subject,4 h
